Measurements as given in ChEMBL document CHEMBL3046148, “Synthesis and biological evaluation of resveratrolcoumarin hybrid compounds as potential antitumor agents” (Med Chem Res, 2013).

Tests used:
Format in all cases: functional, cell-based
MCF7 = assay: Cytotoxicity against Homo sapiens (human) MCF7 cells assessed as growth inhibition after 48 hr by MTT assay
[1] = Cytotoxicity against Homo sapiens (human) HCT28 cells assessed as growth inhibition after 48 hr by MTT assay
K562 = assay: Cytotoxicity against Homo sapiens (human) K562 cells assessed as growth inhibition after 48 hr by MTT assay
[2] = Homo sapiens, MCF7, 48 h, read-out: IC50
[3] = Homo sapiens, 48 h, read-out: IC50
[4] = Homo sapiens, K562, 48 h, read-out: IC50

For `COc1cc(/C=C\c2ccc3oc(=O)c(-c4ccc(OC)c(OC)c4)cc3c2)cc(OC)c1` [CIS-3-(3,4-DIMETHOXYPHENYL)-6-(3,5-DIMETHOXYSTYRYL)COUMARIN], the IC50 (MCF7; [2]) was 9 µM, the IC50 [1, 3] was 13.5 µM and the IC50 (K562; k562) was “Not Active”.

In the case of `COc1ccc(/C=C\c2ccc3oc(=O)c(-c4ccc(OC)c(OC)c4)cc3c2)cc1` [CIS-3-(3,4-DIMETHOXYPHENYL)-6-(4-METHOXYSTYRYL)COUMARIN], the IC50 (MCF7; mcf7) is reported as “Not Active”, the IC50 [1] is reported as “Not Active” and the IC50 (K562; k562) is reported as “Not Active”.

In the case of `COc1ccc(-c2cc3cc(/C=C\c4ccccc4)ccc3oc2=O)cc1OC` [CIS-3-(3,4-DIMETHOXYPHENYL)-6-STYRYLCOUMARIN], the IC50 (MCF7; mcf7) is reported as “Not Active”, the IC50 [1] is reported as “Not Active” and the IC50 (K562; k562) is reported as “Not Active”.

In the case of `COc1ccc(-c2cc3cc(/C=C\c4ccccc4)ccc3oc2=O)cc1` [CIS-3-(4-METHOXYPHENYL)-6-STYRYLCOUMARIN], the IC50 (MCF7; mcf7) is reported as “Not Active”, the IC50 [1] is reported as “Not Active” and the IC50 (K562; k562) is reported as “Not Active”.

In the case of `COc1ccc(-c2cc3cc(/C=C\c4cc(OC)cc(OC)c4)ccc3oc2=O)cc1` [CIS-6-(3,5-DIMETHOXYSTYRYL)-3-(4-METHOXYPHENYL)COUMARIN], the IC50 (MCF7; mcf7) is reported as “Not Active”, the IC50 [1] is reported as “Not Active” and the IC50 (K562; k562) is reported as “Not Active”.

For `COc1cc(/C=C\c2ccc3oc(=O)c(-c4ccccc4)cc3c2)cc(OC)c1` [CIS-6-(3,5-DIMETHOXYSTYRYL)-3-PHENYLCOUMARIN], the IC50 (MCF7; mcf7) was “Not Active”, the IC50 [1] was “Not Active” and the IC50 (K562; k562) was “Not Active”.

`COc1ccc(/C=C\c2ccc3oc(=O)c(-c4ccccc4)cc3c2)cc1` [CIS-6-(4-METHOXYSTYRYL)-3-PHENYLCOUMARIN] showed an IC50 (MCF7; [2]) of 10.9 µM, an IC50 [1, 3] of 10.7 µM and an IC50 (K562; [4]) of 3.79 µM.

With `COc1cc(/C=C/c2ccc3oc(=O)c(-c4ccc(OC)c(OC)c4)cc3c2)cc(OC)c1` [TRANS-3-(3,4-DIMETHOXYPHENYL)-6-(3,5-DIMETHOXYSTYRYL)COUMARIN] the IC50 (MCF7; [2]) was 7.41 µM, the IC50 [1, 3] was 10.1 µM and the IC50 (K562; k562) was “Not Active”.

With `COc1ccc(/C=C/c2ccc3oc(=O)c(-c4ccc(OC)c(OC)c4)cc3c2)cc1` [TRANS-3-(3,4-DIMETHOXYPHENYL)-6-(4-METHOXYSTYRYL)COUMARIN] the IC50 (MCF7; [2]) was 4.23 µM, the IC50 [1, 3] was 7.14 µM and the IC50 (K562; [4]) was 8.76 µM.

For `COc1ccc(-c2cc3cc(/C=C/c4ccccc4)ccc3oc2=O)cc1OC` [TRANS-3-(3,4-DIMETHOXYPHENYL)-6-STYRYLCOUMARIN], the IC50 (MCF7; [2]) was 14.5 µM, the IC50 [1, 3] was 10.8 µM and the IC50 (K562; k562) was “Not Active”.

With `COc1ccc(-c2cc3cc(/C=C/c4cc(OC)cc(OC)c4)ccc3oc2=O)cc1` [TRANS-6-(3,5-DIMETHOXYSTYRYL)-3-(4-METHOXYPHENYL)COUMARIN] the IC50 (MCF7; [2]) was 11.2 µM, the IC50 [1, 3] was 19.2 µM and the IC50 (K562; [4]) was 11.5 µM.

With `COc1cc(/C=C/c2ccc3oc(=O)c(-c4ccccc4)cc3c2)cc(OC)c1` [TRANS-6-(3,5-DIMETHOXYSTYRYL)-3-PHENYLCOUMARIN] the IC50 (MCF7; [2]) was 13.5 µM, the IC50 [1] was “Not Active” and the IC50 (K562; k562) was “Not Active”.

Compound `COc1ccc(/C=C/c2ccc3oc(=O)c(-c4ccccc4)cc3c2)cc1` [TRANS-6-(4-METHOXYSTYRYL)-3-PHENYLCOUMARIN] has an IC50 (MCF7; [2]) of 7.32 µM, an IC50 [1, 3] of 3.78 µM and an IC50 (K562; [4]) of 13 µM.

With `COc1ccc(/C=C/c2cc(OC)cc(OC)c2)cc1` [TRISMETHOXYRESVERATROL] the IC50 (MCF7; [2]) was 8.41 µM, the IC50 [1, 3] was 4.83 µM and the IC50 (K562; [4]) was 6.39 µM.
